Publication PMC8495692 (ACS Omega, 2021)
Marks after values point to notes of the source that are not given here.

Legend:
human IRAK1 = human IRAK1 (Homo sapiens, UniProt P51617); assay: IRAK1 kinase assay; type: biochemical; details: for inhibition at 10 µM: read-out: % of kinase inhibition (mean), IRAK1, 10 μM compound
human IRAK4 = assay: IRAK4 kinase assay; type: biochemical; details: 10 μM compound; ATP 10 μM
[1] = test system: LPS-stimulated PMA-induced human THP-1 macrophages; assay: Cytokine production, CBA array beads with flow cytometry; type: cell-based; details: 1 μM, 24 h, compared to control DMSO
[2] = test system: cells overexpressing IRAK1; assay: MTT cytotoxicity on cells overexpressing IRAK1; type: cell-based; details: Homo sapiens, read-out: IC50, toxicity on cells overexpressing IRAK1
IRAK4 = details: read-out: IC50 against IRAK4; cited from earlier work
IRAK1 = details: read-out: IC50 against IRAK1; cited from earlier work

Chain of human IRAK1 (P51617 whole entry): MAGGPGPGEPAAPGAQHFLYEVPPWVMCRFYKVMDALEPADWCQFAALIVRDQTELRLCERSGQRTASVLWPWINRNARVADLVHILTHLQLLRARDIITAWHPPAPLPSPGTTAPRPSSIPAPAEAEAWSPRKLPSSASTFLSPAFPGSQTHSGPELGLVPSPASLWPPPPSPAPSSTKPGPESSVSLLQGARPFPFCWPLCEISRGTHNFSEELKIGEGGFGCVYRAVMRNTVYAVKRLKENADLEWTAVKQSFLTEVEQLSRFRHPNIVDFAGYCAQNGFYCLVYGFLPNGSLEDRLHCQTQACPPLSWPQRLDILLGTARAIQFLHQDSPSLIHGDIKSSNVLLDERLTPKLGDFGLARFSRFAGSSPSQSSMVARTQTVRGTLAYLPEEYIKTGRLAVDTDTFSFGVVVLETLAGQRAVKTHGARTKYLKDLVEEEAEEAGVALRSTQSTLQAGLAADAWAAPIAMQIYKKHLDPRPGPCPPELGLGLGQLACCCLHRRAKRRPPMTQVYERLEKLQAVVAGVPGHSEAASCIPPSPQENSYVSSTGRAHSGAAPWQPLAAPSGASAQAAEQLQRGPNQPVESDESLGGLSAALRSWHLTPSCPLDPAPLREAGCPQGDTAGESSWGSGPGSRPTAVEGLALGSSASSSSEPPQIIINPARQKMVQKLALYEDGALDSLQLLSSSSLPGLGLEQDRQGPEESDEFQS

Row | Structure (SMILES) | inhibition at 10 µM (human IRAK1; ATP 10 μM) [%] | % of kinase inhibition (mean), IRAK4 (human IRAK4) [%] | IC50 (human IRAK1) [µM] | also measured
1 | O=C1C=CC(=O)C=C1 [1,4-benzoquinone] | 20 | 0 | – | –
2 | O=C1C=CC(=O)c2ccccc21 [1,4-naphthoquinone] | – | 10 | 0.914 | IL-8, IL-1β, and IL-10 levels in supernatant ([1]; p-value < 0.01): most downregulated; levels of most of measured cytokines (IL-1β, TNF-α, IL-10, IL-6, IL-8, IL-12β) in supernatant ([1]; p-value < 0.05): significant decrease; IC50 [2]: < 10 µM
3 | C=CC(=O)Nc1cccc(C(=O)Nc2ccc(NC(=O)c3cccc(-c4ccn[nH]4)n3)cc2)c1 [JH-X-119-01] | – | – | – | IC50 (IRAK4): > 10000 nM
4 | Cc1cc(O)c2c(c1)C(=O)c1cc(O)cc(O)c1C2=O [emodin, 1,3,8-trihydroxy-6-methylanthraquinone] | – | 9 | 1.43 | –
5 | Oc1ccc(O)cc1 [hydroquinone] | 15 | 4 | – | –
6 | O=C1C=CC(=O)c2c(O)cccc21 [juglone, 5-hydroxy-1,4-naphthoquinone] | 0 | 0 | – | –
7 | CC(C)=CCC1=C(O)C(=O)c2ccccc2C1=O [lapachol, 2-hydroxy-3-(3-methyl-2-butenyl)-1,4-naphthoquinone] | 8 | 3 | – | –
8 | CC1=CC(=O)c2ccccc2C1=O [menadione (Vitamin K3), menadione, reference compound] | > 20 | 0 | 45.1 | % of kinase inhibition (mean), IRAK1 (human IRAK1; 10 μM compound, ATP 10 μM): 28 ^a %
9 | C1=C/COCc2cc(ccc2OCCN2CCCC2)Nc2nccc(n2)-c2cccc(c2)COC/1 [pacritinib] | – | – | – | IC50 (IRAK4): 177 nM; IC50 (IRAK1): 6 nM
10 | CC1=C(C/C=C(\C)CCC[C@H](C)CCC[C@H](C)CCCC(C)C)C(=O)c2ccccc2C1=O [phylloquinone (Vitamin K1), phylloquinone, reference compound] | 14 | 9 | – | –
11 | CC1=CC(=O)c2c(O)cccc2C1=O [plumbagin, 5-hydroxy-2-methyl-1,4-naphthoquinone] | – | 0 | 6.33 | –
12 | CC(C)=CCC(O)C1=CC(=O)c2c(O)ccc(O)c2C1=O (stereo not drawn) [shikonin, 5,8-dihydroxy-2-(1-hydroxy-4-methyl-3-pentenyl)-1,4-naphthoquinone] | – | 0 | 4.53 | –
13 | CC1=CC(=O)C(C(C)C)=CC1=O [thymoquinone, 2-isopropyl-5-methyl-1,4-benzoquinone] | 5 | 0 | – | –
